Experimental data from patent US7608712B2, “Pyridine imidazoles and aza-indoles as progesterone receptor modulators” (Janssen Pharmaceutica N.V., priority 2004, dated 2009).

The molecules below were run on T47D human breast cancer cells (assay: T47D alkaline phosphatase assay (In Vitro Test)). Details: Homo sapiens, T47D.
Type: cell-based
Protocol: T47D human breast cancer cells are grown in RPMI medium without phenol red (Invitrogen) containing 10% (v/v) heat-inactivated fetal bovine serum (FBS; Hyclone), 1% (v/v) penicillin-streptomycin (Invitrogen), 1% (w/v) glutamine (Invitrogen), and […] insulin (Sigma). Incubation conditions are 37 °C in a humidified 5% (v/v) carbon dioxide environment. For assay, the cells are plated in 96-well tissue culture plates at 10,000 cells per well in assay medium [RPMI medium without phenol red (Invitrogen) containing 5% (v/v) charcoal-treated FBS (Hyclone) and 1% (v/v) penicillin-streptomycin (Invitrogen)]. Two days later, the medium is decanted and the compounds are added in a final concentration of 0.1% (v/v) dimethyl sulfoxide in fresh assay medium. Twenty-four hours later, an alkaline phosphatase assay is performed using a SEAP kit (BD Biosciences Clontech, Palo Alto, Calif.). Briefly, the medium is decanted and the cells are fixed for 30 minutes at room temperature with 5% (v/v) formalin (Sigma). The cells are washed once with room temperature Hank's buffered saline solution (Invitrogen). Equal volumes (0.05 mL) of 1× Dilution Buffer, Assay Buffer and 1:20 substrate/enhancer mixture are added. After 1-hour incubation at room temperature in the dark, the lysate is transferred to a white 96-well plate (Dynex) and luminescence is read using a LuminoSkan Ascent (Thermo Electron, Woburn, Mass.).
`CC1(C)C(=O)Nc2ncc(-c3cccc(F)c3)cc21` [Example 31, 5-(3-Fluoro-phenyl)-3,3-dimethyl-1,3-dihydro-pyrrolo[2,3-b]pyridin-2-one] gave an IC50 of 4.48 µM.

Same assay, conditions: Homo sapiens, T47D, read-out: % inh.
Molecule `CC1(C)C(=O)Nc2ncc(-c3cccc(F)c3)cc21` [Example 31, 5-(3-Fluoro-phenyl)-3,3-dimethyl-1,3-dihydro-pyrrolo[2,3-b]pyridin-2-one] has an inhibition at 3 µM of 95% and an inhibition at 10 µM of 92%.

Same assay, conditions: Homo sapiens, T47D; @ 3 uM; read-out: % inh.
In the case of `O=C1Nc2ncc(-c3cccc(F)c3)cc2C12CCCCC2` [Example 32, 5-(3-Fluoro-phenyl)-3,3-spiro[cyclohexane]-1,3-dihydro-pyrrolo[2,3-b]pyridin-2-one], the inhibition at 3 µM is reported as 58%.

Same assay, conditions: Homo sapiens, T47D; @ 10 uM; read-out: % inh.
Molecule `O=C1Nc2ncc(-c3cccc(F)c3)cc2C12CCCCC2` [Example 32, 5-(3-Fluoro-phenyl)-3,3-spiro[cyclohexane]-1,3-dihydro-pyrrolo[2,3-b]pyridin-2-one] has an inhibition at 10 µM of 58%.

Same assay, conditions: Homo sapiens, T47D; Table 4; read-out: IC50
`O=C1Nc2ncc(-c3cccc(F)c3)cc2C12CCCCC2` [Example 32, 5-(3-Fluoro-phenyl)-3,3-spiro[cyclohexane]-1,3-dihydro-pyrrolo[2,3-b]pyridin-2-one] was tested, and the IC50 was 7.03 µM.

Same assay, conditions: Homo sapiens, T47D; activation (footnote to Table 3)
`O=C1N=C2C=CC(c3ccc(Cl)c(Cl)c3)=CN2C12CCCC2` [Example 28, 6-(3,4-Dichloro-phenyl)-3,3-spiro[pentane]-imidazo[1,2-a]pyridin-2-one] gave an EC50 of 1.95 µM.

Same assay, conditions: Table 3; test concentration not given
In the case of `CC1(C)C(=O)N=C2C=CC(Br)=CN21` [Example 1-C1, 6-Bromo-3,3-dimethyl-imidazo[1,2-a]pyridin-2-one], the “% inh.” value is reported as 53%. In the case of `O=C1N=C2C=CC(Br)=CN2C12CCCC2` [Example 1-C2, 6-Bromo-3,3-spiro[cyclopentane]-imidazo[1,2-a]pyridin-2-one], the “% inh.” value is reported as 35%. `CC1(C)C(=O)N=C2C=CC(c3cccc(Cl)c3)=CN21` [Example 2, 6-(3-Chloro-phenyl)-3,3-dimethyl-imidazo[1,2-a]pyridin-2-one] was tested, and the “% inh.” value was 15%. For `O=C1N=C2C=CC(c3cccc(Cl)c3)=CN2C12CCCCC2` [Example 3, 6-(3-chloro-phenyl)-3,3-spiro[cyclohexane]-imidazo[1,2-a]pyridin-2-one], the “% inh.” value was 104%. With `CC1(C)C(=O)N=C2C=CC(c3cccc(C#N)c3)=CN21` [Example 4, 3-(3,3-Dimethyl-2-oxo-2,3-dihydro-imidazo[1,2-a]pyridin-6-yl)-benzonitrile] the “% inh.” value was 19%. In the case of `CC1(C)C(=O)N=C2C=CC(Cl)=CN21` [Example 5, 6-Chloro-3,3-dimethyl-imidazo[1,2-a]pyridin-2-one], the “% inh.” value is reported as 31%. `O=C1N=C2C=CC(Cl)=CN2C12CCCCC2` [Example 6, 6-Chloro-spiro[cyclohexane]-imidazo[1,2-a]pyridin-2-one] was tested, and the “% inh.” value was 42%. With `CC1(C)C(=O)N=C2C=CC(c3cc(F)cc(F)c3)=CN21` [Example 7, 6-(3,5-Difluoro-phenyl)-3,3-dimethyl-imidazo[1,2-a]pyridin-2-one] the “% inh.” value was 40%. `CC1(C)C(=O)N=C2C=CC(c3cccc([N+](=O)[O-])c3)=CN21` [Example 8, 3,3-Dimethyl-6-(3-nitro-phenyl)-imidazo[1,2-a]pyridin-2-one] was tested, and the “% inh.” value was 33%. `CC1(C)C(=O)N=C2C=CC(c3cccc(C(F)(F)F)c3)=CN21` [Example 9, 3,3-Dimethyl-6-(3-trifluoromethyl-phenyl)-imidazo[1,2-a]pyridin-2-one] was tested, and the “% inh.” value was 17%. With `CC1(C)C(=O)N=C2C=CC(c3ccc(F)cc3F)=CN21` [Example 10, 6-(2,4-Difluoro-phenyl)-3,3-dimethyl-imidazo[1,2-a]pyridin-2-one] the “% inh.” value was 29%. In the case of `CC1(C)C(=O)N=C2C=CC(c3cc(C(F)(F)F)cc(C(F)(F)F)c3)=CN21` [Example 11, 6-(3,5-Bis-trifluoromethyl-phenyl)-3,3-dimethyl-imidazo[1,2-a]pyridin-2-one], the “% inh.” value is reported as 19%. With `COc1cccc(C2=CN3C(=NC(=O)C3(C)C)C=C2)c1` [Example 12, 6-(3-Methoxy-phenyl)-3,3-dimethyl-imidazo[1,2-a]pyridin-2-one] the “% inh.” value was 3.1%. `CC1(C)C(=O)N=C2C=CC(c3cccc(F)c3)=CN21` [Example 13, 6-(3-Fluoro-phenyl)-3,3-dimethyl-imidazo[1,2-a]pyridin-2-one] was tested, and the “% inh.” value was 14%. For `CC1(C)C(=O)N=C2C=CC(c3ccccc3Cl)=CN21` [Example 14, 6-(2-Chloro-phenyl)-3,3-dimethyl-imidazo[1,2-a]pyridin-2-one], the “% inh.” value was 0%. For `O=C1N=C2C=CC(c3cccc(F)c3)=CN2C12CCCCC2` [Example 15, 6-(3-Fluoro-phenyl)-3,3-spiro[cyclohexane]-imidazo[1,2-a]pyridin-2-one], the “% inh.” value was 0%. `COc1cccc(C2=CN3C(=NC(=O)C34CCCCC4)C=C2)c1` [Example 16, 6-(3-Methoxy-phenyl)-3,3-spiro[cyclohexane]-imidazo[1,2-a]pyridin-2-one] was tested, and the “% inh.” value was 01%. For `O=C1N=C2C=CC(c3cc(C(F)(F)F)cc(C(F)(F)F)c3)=CN2C12CCCCC2` [Example 17, 6-(3,5-Bis-trifluoromethyl-phenyl)-3,3-spiro[cyclohexane]-imidazo[1,2-a]pyridin-2-one], the “% inh.” value was 04%. In the case of `O=C1N=C2C=CC(c3cccc([N+](=O)[O-])c3)=CN2C12CCCCC2` [Example 18, 6-(3-nitro-phenyl)-3,3-spiro[cyclohexane]-imidazo[1,2-a]pyridin-2-one], the “% inh.” value is reported as 98%. For `O=C1N=C2C=CC(c3cccc(C(F)(F)F)c3)=CN2C12CCCCC2` [Example 19, 6-(3-trifluoromethyl-phenyl)-3,3-spiro[cyclohexane]-imidazo[1,2-a]pyridin-2-one], the “% inh.” value was 97%. In the case of `N#Cc1cccc(C2=CN3C(=NC(=O)C34CCCCC4)C=C2)c1` [Example 20, 6-(3-cyano-phenyl)-3,3-spiro[cyclohexane]-imidazo[1,2-a]pyridin-2-one], the “% inh.” value is reported as 96%. In the case of `O=C1N=C2C=CC(c3cc(F)cc(F)c3)=CN2C12CCCCC2` [Example 21, 6-(3,5-Difluoro-phenyl)-3,3-spiro[cyclohexane]-imidazo[1,2-a]pyridin-2-one], the “% inh.” value is reported as 99%. In the case of `O=C1N=C2C=CC(c3ccc(Cl)c(Cl)c3)=CN2C12CCCCC2` [Example 22], the “% inh.” value is reported as 88%. `O=C1N=C2C=CC(c3ccc(F)cc3F)=CN2C12CCCCC2` [Example 23, 6-(2,4-Difluoro-phenyl)-3,3-spiro[cyclohexane]-imidazo[1,2-a]pyridin-2-one] was tested, and the “% inh.” value was 96%. With `O=C1N=C2C=CC(c3cccc(Cl)c3)=CN2C12CCCC2` [Example 24, 6-(3-chloro-phenyl)-3,3-spiro[pentane]-imidazo[1,2-a]pyridin-2-one] the “% inh.” value was 1%. In the case of `N#Cc1cccc(C2=CN3C(=NC(=O)C34CCCC4)C=C2)c1` [Example 25, 6-(3-cyano-phenyl)-3,3-spiro[pentane]-imidazo[1,2-a]pyridin-2-one], the “% inh.” value is reported as 2%. `O=C1N=C2C=CC(c3cccc(F)c3)=CN2C12CCCC2` [Example 26, 6-(3-Fluoro-phenyl)-3,3-spiro[pentane]-imidazo[1,2-a]pyridin-2-one] was tested, and the “% inh.” value was 2%. For `O=C1N=C2C=CC(c3cccc([N+](=O)[O-])c3)=CN2C12CCCC2` [Example 27, 6-(3-nitro-phenyl)-3,3-spiro[pentane]-imidazo[1,2-a]pyridin-2-one], the “% inh.” value was 86%. In the case of `O=C1N=C2C=CC(c3ccc(Cl)c(Cl)c3)=CN2C12CCCC2` [Example 28, 6-(3,4-Dichloro-phenyl)-3,3-spiro[pentane]-imidazo[1,2-a]pyridin-2-one], the “% inh.” value is reported as 22%. For `O=C1N=C2C=CC(c3cc(C(F)(F)F)cc(C(F)(F)F)c3)=CN2C12CCCC2` [Example 29, 6-(3,5-Bis-trifluoromethyl-phenyl)-3,3-spiro[pentane]-imidazo[1,2-a]pyridin-2-one], the “% inh.” value was 25%. For `O=C1N=C2C=CC(c3ccc(F)c(Cl)c3)=CN2C12CCCC2` [Example 30, 6-(3-Chloro-4-fluoro-phenyl)-3,3-spiro[pentane]-imidazo[1,2-a]pyridin-2-one], the “% inh.” value was 21%.
